Source: paper PMC11237012, “Synthesis and preliminary evaluation of novel PET probes for GSK-3 imaging” (Scientific Reports, 2024)

Assay: Radiochemical stability in human serum (rad-TLC)
Assay type: in vitro ADME
Settings: 37 °C
Method: The stability of PET probes [^18F]2 and [^18F]6 was measured in isotonic NaCl solution (0.9% NaCl) and mouse and human serums at 37 °C for up to 120 min by rad-TLC at 0 min, 30 min, 60 min and 120 min post incubation. The results obtained are presented in Fig. 5 and SI-Figs. S10–S15, SI-Table S1. […] The plausible explanation of the instability of [^18F]6 could be attributed to the covalent interaction of [^18F]6’s SO2F group with primary amines of amino acid residues present in the protein rich mouse and human serums. In fact, in an unrelated study, Zhao et al. reported formation of sulfonamide bond between sulfuryl fluoride and primary amine of conserved lysine residues of different kinases. […] Based on 2’s favorable blood–brain barrier permeability, nanomolar binding affinity and PET probe [^18F]2’s excellent stability in both mouse and human serums, further in vivo evaluations were performed only with PET probe [^18F]2.
Stability of [^18F]2 and [^18F]6 was assessed in isotonic NaCl solution and human and mouse serums. To perform this stability assay, 100 µL of [^18F]2 (~ 37.0 MBq) or 100 µL of [^18F]6 (~ 37.0 MBq) as in final formulation was added to 100 µL of human serum or mouse serum in a microcentrifuge tube. The resultant mixture was incubated at 37 °C for 120 min. To assess the radiochemical stability of the probes, a small aliquot (~ 0.5 µL) was taken out from the mixture in triplicate at 0 min, 30 min, 60 min and 120 min during incubation, and analyzed on a rad-TLC using 0.5:9.5 methanol: chloroform as a mobile phase using i-TLC to estimate the stability of [^18F]2 or [^18F]6 at different time points post-incubation. After Stability preparative processes initial i-TLC development was considered as 0 min.

Measured: Percentage of intact probe

O=C(Nc1cnccc1-c1ccc([18F])cc1)c1ccnc(NC(=O)C2CC2)c1 [[^18F]2]
100 ± 0.0%: 0 min | 30 min | 60 min
